Measurements: the supplement of paper PMC10307832

Assays:
Test in all cases: relative viability (nuclei count vs DMSO), 5 days (fraction); higher = more cells survive
Tosedostat + Tozasertib = compound: CC(C)C[C@@H](C(=O)N[C@H](C(=O)OC1CCCC1)c1ccccc1)[C@H](O)C(=O)NO [Tosedostat] + Cc1cc(Nc2cc(N3CCN(C)CC3)nc(Sc3ccc(NC(=O)C4CC4)cc3)n2)n[nH]1 [Tozasertib] (partner 0.1 µM)
Summary of the method: (§1)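 Nuclei were stained with Hoechst during a one-step fixation (final 0.05% Triton X-100, 1% formaldehyde, 1 ug/ml Hoechst) carried out 5 days after dosing, then counted on 4× images. The cells, lung cancer lines in 1536-well plates, had been dosed by pin tool the day after seeding with one drug alone or a fixed anchor-drug dose plus five library-drug doses (not always all listed) in √10 steps. Relative viability is the nuclei count in treated wells divided by that in vehicle wells, and each value is the median of duplicate plates.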

Tosedostat + Phenformin = compound: CC(C)C[C@@H](C(=O)N[C@H](C(=O)OC1CCCC1)c1ccccc1)[C@H](O)C(=O)NO [Tosedostat] + N=C(N)NC(=N)NCCc1ccccc1 [Phenformin] (partner 250 µM)
Summary of the method: as §1

[1] = compound: CC1=NN=C(O1)C2=NN=C(C=C2)N3CCC(CC3)OC4=C(C=CC(=C4)F)Cl + CC(C)C[C@H](NC(=O)[C@H](Cc1ccccc1)NC(=O)c1cnccn1)B(O)O [Bortezomib] (partner 0.002 µM)
Summary of the method: as §1

[2] = compound: CC1=NN=C(O1)C2=NN=C(C=C2)N3CCC(CC3)OC4=C(C=CC(=C4)F)Cl + CS(=O)(=O)CCNCc1ccc(-c2ccc3ncnc(Nc4ccc(OCc5cccc(F)c5)c(Cl)c4)c3c2)o1 [Lapatinib] (partner 2 µM)
Summary of the method: as §1

Cell Line | relative viability (Tosedostat + Tozasertib; first compound 0.02 µM) | relative viability (Tosedostat + Tozasertib; first compound 0.06325 µM) | relative viability (Tosedostat + Tozasertib; first compound 0.2 µM) | relative viability (Tosedostat + Tozasertib; first compound 0.6325 µM) | relative viability (Tosedostat + Tozasertib; first compound 2 µM) | relative viability (Tosedostat + Phenformin; first compound 0.02 µM) | relative viability (Tosedostat + Phenformin; first compound 0.06325 µM) | relative viability (Tosedostat + Phenformin; first compound 0.2 µM) | relative viability (Tosedostat + Phenformin; first compound 0.6325 µM) | relative viability (Tosedostat + Phenformin; first compound 2 µM) | relative viability ([1]; first compound 0.253 µM) | relative viability ([1]; first compound 0.8 µM) | relative viability ([1]; first compound 2.53 µM) | relative viability ([1]; first compound 8 µM) | relative viability ([2]; first compound 0.253 µM) | relative viability ([2]; first compound 0.8 µM) | relative viability ([2]; first compound 2.53 µM) | relative viability ([2]; first compound 8 µM)
NCI-H3122 | 0.413 | 0.4 | 0.393 | 0.388 | 0.306 | 0.415 | 0.385 | 0.362 | 0.368 | 0.292 | 0.662 | 0.707 | 0.71 | 0.566 | 0.519 | 0.675 | 0.52 | 0.449
PC-3 [JPC-3] | 0.892 | 0.954 | 0.87 | 0.802 | 0.571 | 0.468 | 0.463 | 0.491 | 0.442 | 0.408 | 0.519 | 0.614 | 0.726 | 0.666 | 0.404 | 0.453 | 0.445 | 0.432
PC-14 | 0.586 | 0.562 | 0.52 | 0.51 | 0.399 | 0.653 | 0.54 | 0.452 | 0.448 | 0.38 | 0.782 | 0.655 | 0.681 | 0.741 | 0.294 | 0.31 | 0.302 | 0.313
RERF-LC-KJ | 0.553 | 0.462 | 0.403 | 0.304 | 0.293 | 0.406 | 0.395 | 0.461 | 0.364 | 0.312 | 0.776 | 0.9 | 0.929 | 0.969 | 0.623 | 0.545 | 0.584 | 0.57
SK-LU-1 | 0.356 | 0.282 | 0.275 | 0.285 | 0.225 | 0.598 | 0.535 | 0.52 | 0.428 | 0.525 | 1.08 | 0.86 | 1.12 | 1.02 | 0.703 | 0.749 | 0.772 | 0.807
SW 1573 | 0.183 | 0.193 | 0.205 | 0.219 | 0.157 | 0.417 | 0.364 | 0.302 | 0.336 | 0.342 | 0.865 | 0.834 | 1.01 | 1.15 | 1.03 | 1.09 | 0.877 | 0.932
